Measured values: patent US11466013B2 (Betta Pharmaceuticals Co., LTD, priority 2018, dated 2022)

Assays:
ERK1 = ERK1 (Homo sapiens, UniProt P27361); test: Kinase assay (Caliper, FAM-labeled peptide), ERK1; type: biochemical
Method in brief: (§1)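 Kinase preincubated 10 min at room temperature with serially diluted compound before FAM-labeled peptide plus ATP added; reaction run at 28 °C, then stopped. Substrate conversion read by Caliper mobility shift, normalized to DMSO and low controls, curve-fitted for IC50.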

HCT 116 cells = test: Cell proliferation assay (HCT 116), Cell-titer Glo; type: cell-based; details: Homo sapiens, 120 h incubation
Experimental: The HCT 116 cells were paved in a 96-well plate at 1200 cells, 160 μL/well. After incubating overnight, the compound solutions of gradient concentration was prepared, and 40 μL of DMSO solution of the test compound of each concentration was added to the cells of each well. The final concentration of the compound was 30000, 10000, 3333.3, 1111.1, 370.4, 123.5, 41.2, 13.7, 4.6, 0 nM (the final concentration of DMSO was 0.5%). 5% CO2 was incubated for 120 h at 37° C. 50 μL of Cell-titer Glo working solution was added to each well, shaked and mixed, and incubated at room temperature for 10 minutes. The multi-functional microplate reader read the luminescence value, and converted the luminescence value reading into inhibition percentage. Inhibition percentage=(maximum value−reading)/(maximum value−minimum value)*100.
The “maximum value” was the DMSO control, the “minimum value” indicated the cell-free control group.
Graphpad Prism software was used to perform curve fitting and obtain IC50 value.

ERK2 = ERK2 (Homo sapiens, UniProt P28482); test: Kinase assay (Caliper, FAM-labeled peptide), ERK2; type: biochemical
Sequence of ERK2 (P28482 whole entry): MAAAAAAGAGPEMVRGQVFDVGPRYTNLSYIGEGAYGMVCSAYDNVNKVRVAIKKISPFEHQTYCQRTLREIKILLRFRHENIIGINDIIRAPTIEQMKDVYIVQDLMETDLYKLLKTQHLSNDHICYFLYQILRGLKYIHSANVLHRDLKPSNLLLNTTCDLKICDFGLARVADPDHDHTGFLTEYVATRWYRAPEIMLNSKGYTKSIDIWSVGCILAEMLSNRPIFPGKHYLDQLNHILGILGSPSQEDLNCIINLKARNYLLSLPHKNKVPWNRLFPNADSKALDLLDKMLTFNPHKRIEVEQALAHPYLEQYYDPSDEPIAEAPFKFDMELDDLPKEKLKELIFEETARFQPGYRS
Method in brief: as §1

COLO205 cells = test: Cell proliferation assay (COLO205), Cell-titer Glo; type: cell-based; details: Homo sapiens, COLO 205, 120 h incubation
Method in brief: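 Cells seeded 2000/well overnight, then exposed to compound at 30000 down to 4.6 nM final (0.5% DMSO) for 120 h at 37° C, 5% CO2. CellTiter-Glo luminescence converted to % inhibition against DMSO and cell-free controls; IC50 by curve fit.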

Sequence of ERK1 (P27361 whole entry): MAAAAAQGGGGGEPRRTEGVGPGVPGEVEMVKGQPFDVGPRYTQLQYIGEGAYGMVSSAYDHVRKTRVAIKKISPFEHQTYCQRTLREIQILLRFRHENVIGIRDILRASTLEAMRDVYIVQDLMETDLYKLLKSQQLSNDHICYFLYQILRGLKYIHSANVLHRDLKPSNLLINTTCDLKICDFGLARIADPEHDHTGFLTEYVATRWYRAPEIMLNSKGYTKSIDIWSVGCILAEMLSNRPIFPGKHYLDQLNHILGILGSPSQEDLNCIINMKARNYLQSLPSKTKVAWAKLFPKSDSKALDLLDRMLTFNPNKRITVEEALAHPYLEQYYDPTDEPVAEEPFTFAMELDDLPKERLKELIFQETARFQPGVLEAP

| SMILES | IC50 (ERK1) [nM] | IC50 (HCT 116 cells) [nM] | IC50 (ERK2) [nM] | IC50 (COLO205 cells) [nM] |
| --- | --- | --- | --- | --- |
| COC[C@H]1Cn2cc(-c3cc(NC4CCOCC4)ncc3Cl)cc2C(=O)N1Cc1cc(F)ccc1CO [Example 62, (R)-7-(5-chloro-2-((tetrahydro-2h-pyran-4-yl)amino)pyridine-4-yl)-2-(5-fluoro-2-(hydroxymethyl)benzyl)-3-(methoxymethyl)-3,4-dihydropyrrolo[1,2-a] pyrazine-1(2H)-one] | 0.93 | 7.99 | 0.39 | 17.5 |
| O=C1c2cc(-c3cc(NC4CCOCC4)ncc3Cl)cn2CCN1Cc1cc(F)ccc1CO [Example 126, 7-(5-chloro-2-((tetrahydro-2h-pyran-4-yl)amino)pyridine-4-yl)-2-(5-fluoro-2-(hydroxymethyl)benzyl)-3,4-dihydropyrrolo[1,2-a] pyrazine-1(2H)-one] | 0.57 | 14.3 | 0.32 | 30.3 |
